Laboratory results: DBAASP
≈ marks a conversion by molar mass, not a printed value.

Columns and labels:
Assay in all cases: ≥ marks a high value that may be exact or a test limit, other limits are often not marked, values filed in µg/mL are converted to µM
[1] = system: Staphylococcus aureus ATCC 43300
[2] = system: Escherichia coli ATCC 25922
[3] = system: Cryptococcus neoformans ATCC 208821
[4] = system: Klebsiella pneumoniae ATCC 700603
[5] = system: Pseudomonas aeruginosa ATCC 27853
[6] = system: Acinetobacter baumannii ATCC 19606
[7] = system: Candida albicans ATCC 90028
[8] = system: Staphylococcus aureus SH1000
Escherichia coli JW0013 = system: Escherichia coli JW0013
[9] = system: Salmonella enterica subsp. enterica serovar Enteritidis MH91989
Escherichia coli J2210 = system: Escherichia coli J2210
Escherichia coli MC1061 = system: Escherichia coli MC1061
Escherichia coli JJ2487 = system: Escherichia coli JJ2487
Escherichia coli O157:H7 = system: Escherichia coli O157:H7
[10] = system: Salmonella typhimurium SL1344
[11] = system: Escherichia coli ATCC 15597
[12] = system: Klebsiella pneumoniae NCTC 5055
[13] = system: Bacillus subtilis ATCC 6633
[14] = system: Salmonella typhimurium DA6192
[15] = system: Staphylococcus aureus ATCC 6538
[16] = system: Micrococcus luteus ATCC 49732
[17] = system: Staphylococcus aureus ATCC 33591
[18] = system: Pseudomonas aeruginosa ATCC 10145
[19] = system: Candida albicans ATCC 10231
[20] = system: Cryptococcus neoformans ATCC 32045
[21] = system: Escherichia coli ATCC 2592

## CC[C@H](C)[C@H](NC(=O)[C@H](CC(=O)O)NC(=O)[C@H](Cc1ccccc1)NC(=O)[C@H](CC(C)C)NC(=O)CN)C(=O)N[C@H](C(=O)N[C@@H](CCCCN)C(=O)N[C@@H](CCCCN)C(=O)N[C@H](C(=O)N[C@H](C(=O)NCC(=O)N[C@@H](C)C(=O)N[C@@H](CC(C)C)C(=O)N[C@@H](CCCCN)C(N)=O)C(C)C)C(C)C)C(C)C [GLFDIVKKVVGALK]
[1]
  MIC: > 22 µM
[2]
  MIC: > 22 µM
[3]
  MIC: 22 µM (≈ 32.7 µg/mL)
[4]
  MIC: > 22 µM
[5]
  MIC: > 22 µM
[6]
  MIC: > 22 µM
[7]
  MIC: 22 µM (≈ 32.7 µg/mL)
[8]
  MIC: ≥ 33 µM

## CC[C@H](C)[C@H](NC(=O)[C@H](CCCN=C(N)N)NC(=O)[C@H](CCCN=C(N)N)NC(=O)[C@@H]1CCCN1C(=O)[C@@H]1CCCN1C(=O)[C@H](CCCN=C(N)N)NC(=O)[C@@H]1CCCN1C(=O)[C@H](CCCN=C(N)N)NC(=O)[C@@H]1CCCN1C(=O)[C@H](CCCN=C(N)N)NC(=O)[C@H](Cc1ccc(O)cc1)NC(=O)[C@@H]1CCCN1C(=O)[C@H](CCCN=C(N)N)NC(=O)[C@H](CCCCN)NC(=O)[C@H](CC(=O)O)NC(=O)[C@@H](N)C(C)C)C(=O)N[C@@H](Cc1ccc(O)cc1)C(=O)N[C@@H](CC(N)=O)C(=O)N[C@@H](CCCN=C(N)N)C(N)=O [VDKRPYRPRPRPPRRIYNR]
Escherichia coli JW0013
  MIC: 0.156 µM (≈ 0.39 µg/mL)
[9]
  MIC: 0.169 µM (≈ 0.42 µg/mL)
Escherichia coli J2210
  MIC: 0.12 µM (≈ 0.3 µg/mL)
Escherichia coli MC1061
  MIC: 0.0602 µM (≈ 0.15 µg/mL)
Escherichia coli JJ2487
  MIC: 0.169 µM (≈ 0.42 µg/mL)
Escherichia coli O157:H7
  MIC: 0.666 µM (≈ 1.66 µg/mL)
[10]
  MIC: 0.156 µM (≈ 0.39 µg/mL)

## CC[C@H](C)[C@H](N)C(=O)N[C@@H](CCC(N)=O)C(=O)N[C@@H](CCCCN)C(=O)N[C@H](C(=O)N[C@H](C(=O)N[C@@H](CCC(N)=O)C(=O)N[C@@H](CCCCN)C(=O)N[C@@H](CC(C)C)C(=O)N[C@@H](CC(C)C)C(=O)N[C@@H](CC(N)=O)C(=O)N[C@@H](CCCN=C(N)N)C(=O)N[C@@H](CC(C)C)C(=O)N[C@@H](CCC(N)=O)C(=O)N[C@@H](CCCCN)C(=O)N[C@H](C(=O)N[C@@H](CC(C)C)C(=O)N[C@@H](CCC(N)=O)C(=O)N[C@@H](CCCCN)C(=O)O)[C@@H](C)CC)[C@@H](C)CC)C(C)C [IQKVIQKLLNRLQKILQK]
[11]
  MIC: 3.1 µM (≈ 6.83 µg/mL)
[12]
  MIC: 12.5 µM (≈ 27.6 µg/mL)
[13]
  MIC: 4.2 µM (≈ 9.26 µg/mL)
[14]
  MIC: 20.8 µM (≈ 45.9 µg/mL)
[15]
  MIC: > 50 µM
[5]
  MIC: 3.1 µM (≈ 6.83 µg/mL)
[16]
  MIC: 1.05 µM (≈ 2.32 µg/mL)

## CC[C@H](C)[C@H](N)C(=O)N[C@H](C(=O)N[C@@H](CCCCN)C(=O)N[C@H](C(=O)N[C@H](C(=O)N[C@H](C(=O)N[C@@H](CCCCN)C(=O)N[C@@H](CC(C)C)C(=O)N[C@@H](CC(C)C)C(=O)N[C@@H](CC(N)=O)C(=O)N[C@@H](CCCN=C(N)N)C(=O)N[C@@H](CC(C)C)C(=O)N[C@H](C(=O)N[C@@H](CCCCN)C(=O)N[C@H](C(=O)N[C@@H](CC(C)C)C(=O)N[C@@H](CO)C(=O)N[C@@H](CCCCN)C(=O)O)[C@@H](C)CC)[C@@H](C)O)[C@@H](C)O)[C@@H](C)CC)C(C)C)[C@@H](C)O [ITKVITKLLNRLTKILSK]
[11]
  MIC: 3.1 µM (≈ 6.46 µg/mL)
[12]
  MIC: ≥ 50 µM
[13]
  MIC: 15 µM (≈ 31.2 µg/mL)
[14]
  MIC: ≥ 40 µM
[15]
  MIC: 15 µM (≈ 31.2 µg/mL)
[5]
  MIC: 25 µM (≈ 52.1 µg/mL)
[16]
  MIC: 1.5 µM (≈ 3.12 µg/mL)

## CC(C)C[C@H](NC(=O)[C@H](CCCN=C(N)N)NC(=O)[C@H](CC(C)C)NC(=O)[C@H](CCCN=C(N)N)NC(=O)[C@H](CC(C)C)NC(=O)[C@H](CCCN=C(N)N)NC(=O)[C@H](CC(C)C)NC(=O)[C@H](CCCN=C(N)N)NC(=O)[C@H](CC(C)C)NC(=O)[C@H](CCCN=C(N)N)NC(=O)[C@H](CC(C)C)NC(=O)[C@H](CCCN=C(N)N)NC(=O)[C@@H](N)CC(C)C)C(=O)N[C@@H](CCCN=C(N)N)C(=O)O [LRLRLRLRLRLRLR]
[17]
  MIC: ≥ 186 µM
[18]
  MIC: ≥ 65.7 µM
[19]
  MIC: 186 µM (≈ 354 µg/mL)
[20]
  MIC: 2.97 µM (≈ 5.66 µg/mL)
[21]
  MIC: 23 µM (≈ 43.8 µg/mL)
